Key:
[1] = Stability towards oxygen and light (observation during preparation); format: physicochemical; conditions: traces of oxygen in the presence of light
Description: At room temperature while stirring in the dark, 243 mg (248 μL, 1.6 mmol) DBU were added all at once to a solution of 14.8 mg (20 μmol) tetrakis(bromoethyl)porphycene in 50 mL of absolute THF. After thirty minutes, the agitator was turned off and the mixture left to stand at room temperature for two days. Subsequently the greenish-blue solution was treated with 80 mL of CH2 Cl2 and poured into 80 mL of 0.5% HCl. The organic phase was shaken out and washed with water and a 2% NaHCO3 solution, dried over Na2 SO4 and the solvent was evaporated under vacuum. The residue was chromatographed with CH2 Cl2 on aluminum oxide (Brockmann, II-III activity stage, column 2×10 cm) and the first green fraction was collected. The solvent was slowly evaporated under a slight vacuum and the remaining fine crystalline solid was washed with 3 mL of ice cooled, absolute pentane. Following drying under a high vacuum, 4.1 mg (10 μmol) tetravinylporphycene were obtained. […] The yield was 50%.
All reagents and solvents were purged of oxygen by introducing inert gas and all purification steps were carried out under subdued light, as was the reaction.

[2] = Solubility of the title compound in selected solvents; format: physicochemical
From the text: Solubility of the title compound in selected solvents: […]

SMILES | Stability (decomposition) [1] | Solubility of the title compound in selected solvents ([2]; CH2 Cl2) | Solubility of the title compound in selected solvents ([2]; CHCl3) | Solubility of the title compound in selected solvents ([2]; DEET) | Solubility of the title compound in selected solvents ([2]; DMF) | Solubility of the title compound in selected solvents ([2]; DMSO) | Solubility of the title compound in selected solvents ([2]; EtOH) | Solubility of the title compound in selected solvents ([2]; MeOH) | Solubility of the title compound in selected solvents ([2]; THF) | Solubility of the title compound in selected solvents ([2]; Toluene) | Solubility of the title compound in selected solvents ([2]; acetone) | Solubility of the title compound in selected solvents ([2]; ethyl acetate) | Solubility of the title compound in selected solvents ([2]; hexane) | Solubility of the title compound in selected solvents ([2]; i-propanol) | Solubility of the title compound in selected solvents ([2]; water)
C=CC1=Cc2nc1ccc1[nH]c(cc1C=C)c1nc(ccc3[nH]c2cc3C=C)C(C=C)=C1 [2,7,12,17-Tetravinylporphycene] | decomposed even with traces of oxygen in the presence of light |  |  |  |  |  |  |  |  |  |  |  |  |  | 
COCCC1=Cc2nc1ccc1[nH]c(cc1CCOC)c1nc(c(OC(C)=O)cc3[nH]c2cc3CCOC)C(CCOC)=C1 [9-Acetoxy-2,7,12,17-tetrakis(methoxyethyl)porphycene] |  | Excellent | Excellent | Good | Good | Good | Moderate | Moderate | Excellent | Good | Good | Excellent | Insoluble | Moderate | Insoluble

— US5179120A, “Porphycene compounds for photodynamic therapy” (Cytopharm, Inc., priority 1991, dated 1993)
